{
  "source": "patent US11510964B2",
  "about": "“Macrocyclic peptides to decrease c-Myc protein levels and reduce cancer cell growth” (University of Kansas, priority 2017, dated 2022)",
  "key": {"[1]": {"tested_on": "c-Myc protein levels in PC-3 cells", "test": "Western blot analysis of cellular c-Myc protein levels", "format": "cell-based, human", "protocol": "Cells were seeded in 6 well plates at a density of 1×10^5 cells/well and grown to 75% confluence. Cells were treated with [D-Trp]CJ-15,208 at the indicated concentrations. Cells were then harvested as described above, and the cell pellets lysed in RIPA buffer consisting of 10 mM Tris HCl, pH 8.0, 150 mM NaCl, 1 mM EDTA, 1% Triton-X-100, 0.1% SDS, 1% sodium deoxycholate, and a protease inhibitor cocktail #P8340 (Sigma). Cell lysates were centrifuged at 13×1000 rpm for 15 min and the supernatants collected. The total protein concentration was measured in cell lysates using the standard Bradford assay. SDS gel electrophoresis was performed using 4-20% polyacrylamide gel (BioRad). Western blot analysis was performed using the following antibodies: i) c-Myc #5605 (rabbit monoclonal, 1:2000 dilution, (Cell Signaling Technologies)); actin #A2228 (mouse monoclonal, 1:5000 dilution (Sigma)), PP2A #610555 (mouse monoclonal 1:5000 dilution, BD Biosciences), p-PP2A #1155-1 (rabbit polyclonal, 1:5000 dilution (Epitomics)), Erk #9107 (mouse monoclonal, 1:2000 dilution (Cell Signaling Technologies) and p-Erk #4376 (rabbit monoclonal, 1:2000 (Cell Signaling Technologies)); Akt #2920 (mouse monoclonal, 1:2000 dilution (Cell Signaling Technologies)), p-Akt #4056 (rabbit monoclonal, 1:2000 (Cell Signaling Technologies)). The secondary antibodies, goat-anti-mouse #116-035-003 and goat-anti-rabbit #111-035-003, were obtained from Jackson ImmunoResearch Laboratory. Signal densities of the protein bands were determined using ImageJ software (NIH) and normalized to the internal loading control (actin)."}, "PC-3 cells": {"tested_on": "PC-3 cells", "format": "cell-based, human", "settings": "48 h, read-out: IC50, cell growth", "protocol": "Human prostate cancer PC-3 cells were cultured and maintained in EMEM (ATCC), non-prostate HEK (human embryonic kidney) cells were cultured in DMEM, human prostate cancer DU145, LNCaP, 22Rv1 cells were cultured in RPMI 1640 (ATCC), and normal BPH-1 prostate cells and prostate cancer C4-2 cell line were cultured in RPMI 1640 (ATCC), all containing 10% fetal bovine serum (Atlanta Biologicals) and 1% penicillin/streptomycin (Invitrogen). Cells were grown at 37° C. in humidified air with 5% CO2 and passaged every fourth to fifth day following trypsinization with trypsin/EDTA (Invitrogen).^16\nPC-3, LNCaP, DU 145, 22Rv1, C4-2, BPH-1, and HEK cells were grown to a density of 2000 cells/well in 96 well plates and treated with [D-Trp]CJ-15,208 or other peptides for 24-72 h in duplicate. Media containing [D-Trp]CJ-15,208 was changed every 24 h. The proliferation of treated cells was determined using the cell proliferation reagent WST-1 (Roche) per the manufacturer's instructions and compared to […] control cells in 1% DMSO in media. After treatment with compound 10 μL of the reagent was added to the well in 100 μL culture media, and the cells incubated at 37° C. for 30 min. The absorbance of the media in each well was measured at […] using a plate reader (BioTek). The percentage cell proliferation was normalized to vehicle treated control cells calculated as: (mean absorbance of sample/mean absorbance of control cells)×100.^38\nEach experiment was performed in triplicate unless otherwise stated in the figure legend. GraphPad Prism 5 was used to determine IC50 values. Data represent the mean value+/−SEM. Compound vs. vehicle treated cells in the cell cycle phase and apoptosis experiments (FIGS. 5-8) were compared using the student's t-test, with a two-tailed, unpaired method, using the Prism software. The effects of compound vs. vehicle treatment on protein levels (FIG. 10) were evaluated by one-way ANOVA with Dunnett's test for multiple comparisons."}, "[2]": {"settings": "cited from earlier work"}, "[3]": {"settings": "mice, dose of 60 mg/kg; cited from earlier work"}, "[4]": {"settings": "mice, after systemic administration; cited from earlier work"}},
  "note": "Non-standard residues stand in square brackets, D forms with d. Residues, ends and D or L forms follow the SMILES beside them.",
  "data": [
    {"molecule": "C=CCN1CC[C@]23c4c5ccc(O)c4O[C@H]2C(=O)CC[C@@]3(O)[C@H]1C5", "note": "[naloxone, reference compound]", "values": [
      {"measurement": "effect on the decrease in c-Myc protein levels caused by [D-Trp]CJ-15,208", "setting": "[1]; PC-3 cells, 10 μM naloxone with 10 μM [D-Trp]CJ-15,208 (FIG. 1F lane 4 vs. lane 2)", "value": "did not alter the decrease"},
      {"measurement": "effect on c-Myc protein levels", "setting": "[1]; PC-3 cells, 10 μM, 48 h (FIG. 1F lane 3)", "value": "no effect"}
    ]},
    {"molecule": "CC[C@H](C)[C@@H]1NC(=O)[C@H](CCCNC(=N)N)NC(=O)[C@@H](NC(=O)[C@H](Cc2ccccc2)NC(=O)CNC(=O)CNC(=O)[C@H](Cc2ccc(O)cc2)NCc2ccccc2)CC(=O)NC[C@@H](C(=O)N[C@@H](CCCNC(=N)N)C(=O)N2CCC[C@H]2C(=O)N[C@@H](CCCCN)C(N)=O)NC1=O", "note": "[zyklophin, reference compound]", "values": [
      {"measurement": "effect on cellular c-Myc protein levels", "setting": "[1]; 10 μM (FIG. 1E lane 3)", "value": "not decreased"}
    ]},
    {"molecule": "dynorphin A-(1-13) (YGGFLRRIRPKP) [reference compound]", "values": [
      {"measurement": "effect on cellular c-Myc protein levels", "setting": "[1]; 1 μM (FIG. 1E lane 2)", "value": "not decreased"}
    ]},
    {"molecule": "O=C1N[C@@H](Cc2ccccc2)C(=O)N2CCC[C@@H]2C(=O)N[C@@H](Cc2ccccc2)C(=O)N[C@H]1Cc1c[nH]c2ccccc12", "note": "[CJ-15,208, cyclo[Phe-D-Pro-Phe-Trp]] (cyclo(FWF[dP]))", "values": [
      {"measurement": "IC50", "setting": "PC-3 cells", "value": "10.1 ± 0.9", "unit": "µM"},
      {"measurement": "decrease of cellular c-Myc protein levels", "setting": "[1]; 50 μM (FIG. 1E lanes 4 and 5)", "value": 5, "unit": "fold"},
      {"measurement": "reduction of c-Myc protein levels", "setting": "[1]; PC-3 cells, 10 μM, 48 h", "value": "approximately 50%"},
      {"measurement": "activity after oral administration", "setting": "[2]", "value": "active after oral administration"},
      {"measurement": "toxicity", "setting": "[3]", "value": "no evidence of toxicity"},
      {"measurement": "blood-brain barrier penetration", "setting": "[4]", "value": "appear to penetrate the blood-brain barrier"}
    ]}
  ]
}
